# Experimental data as given in patent US12534457B2, “Heteroaryl derivative compounds, and uses thereof” (Voronoi Inc., priority 2021, dated 2026).
# System: Ba/F3 cells expressing EGFR Del19/C797S (EGFR DC)
# Assay: Proliferation inhibitory activity, Ba/F3 cells expressing EGFR Del19/C797S (CellTiter-Glo)
# Format: cell-based
# Details: 72 hours of compound treatment
# Experimental: The following experiments were performed to evaluate the inhibitory activity of the compounds according to the present disclosure on Ba/F3 proliferation expressing EGFR C797S, L861Q, G719A, S768I, L718Q, and/or G724S mutations.
# For Ba/F3 cells, RPMI-1640 containing 10% FBS and 5 ng/ml IL-3 (R&D Systems) was used. Transduced Ba/F3 cells were cultured after adding 1 μg/ml puromycin (Invitrogen) to the same medium.
# At 24 hours before treatment with the compounds, 3000 to 5000 cells were aliquoted into each well of a white clear bottom 96 well plate (Corning). The compounds were diluted in dimethyl sulfoxide (3 times dilution, 12 concentrations in total), and injected in an amount of 1 μl so that the final concentration was 0.2 nM to 5 uM. For measurement of living cells, after 72 hours of compound treatment, the cells were stored at room temperature for 10 min using CellTiter-Glo luminescentcell-viability reagent (Promega), and then luminescence intensity was measured using a reader (SynergyNeo, Biotek). Each test was repeated three times. Result values were calculated as the cell growth rate (%) compared to the control. The graphs were created using GraphPad Prism version 8.3.0 program and the GI50 values were calculated.
row,GI50 [nM],SMILES
1,< 50,COc1cc(Nc2cc(N3OCC[C@@H]3c3cc(F)cc(F)c3)ncn2)ccc1N1CCC(N2CCN(C)CC2)CC1 [Example 26]

# Same assay, conditions: Mus musculus, BaF3, 72 hours of compound treatment
row,SMILES,GI50 [nM]
1,"CN1CCN(c2ccc(Nc3cc(N4OCC5(CC5)[C@@H]4c4ccccc4)ncn3)cc2)CC1 [Example 231, (S)—N-(4-(4-methylpiperazin-1-yl)phenyl)-6-(7-phenyl-5-oxa-6-azaspiro[2.4]heptan-6-yl)pyrimidin-4-amine]",50 to 500
2,"c1ccc([C@H]2CCON2c2cc(Nc3ccc4c(c3)CC[C@H](N3CCCC3)CC4)ncn2)cc1 [Example 83, 6-((R)-3-phenylisoxazolidin-2-yl)-N—((R)-7-(pyrrolidin-1-yl)-6,7,8,9-tetrahydro-5H-benzo[7]annulen-2-yl)pyrimidin-4-amine]",< 50
3,"COc1cc2c(cc1Nc1cc(N3OCC[C@@H]3c3ccccc3)ncn1)OC[C@H]1C[C@@H](N3CCN(C4CC4)CC3)CCN21 [Example 49, (6aR,8S)-8-(4-cyclopropylpiperazin-1-yl)-2-methoxy-N-(6-((R)-3-phenylisoxazolidin-2-yl)pyrimidin-4-yl)-6,6a,7,8,9,10-hexahydrobenzo[b]pyrido[1,2-d] [1,4]oxazin-3-amine]",< 50
4,"CN(C)C1CCN(c2ccc(Nc3cc(N4OCC[C@@H]4c4ccccc4)ncn3)nc2)CC1 [Example Compound 138, (R)-N-(5-(4-(dimethylamino)piperidin-1-yl)pyridin-2-yl)-6-(3-phenylisoxazolidin-2-yl)pyrimidin-4-amine]",< 50
5,"Fc1cccc([C@H]2CCON2c2cc(Nc3ccc([C@@H]4CCON4)cc3)ncn2)c1F [Example 177, 6-((R)-3-(2,3-difluorophenyl)isoxazolidin-2-yl)-N-(4-((S)-isoxazolidin-3-yl)phenyl)pyrimidin-4-amine]",50 to 500
6,"COc1cc(N2CCC3(CC2)CC(N(C)C)C3)c(C)cc1Nc1cc(N2OCC[C@@H]2c2ccccc2)ncn1 [Example 88, (R)-7-(5-methoxy-2-methyl-4-((6-(3-phenylisoxazolidin-2-yl)pyrimidin-4-yl)amino)phenyl)-N,N-dimethyl-7-azaspiro[3.5]nonan-2-amine]",< 50
7,"COc1cc(N2CCC(N3CCN(C)CC3)CC2)ccc1Nc1cc(N2OCC3(CC3)[C@H]2c2ccccc2)ncn1 [Example 234, (R)—N-(2-methoxy-4-(4-(4-methylpiperazin-1-yl)piperidin-1-yl)phenyl)-6-(7-phenyl-5-oxa-6-azaspiro[2.4]heptan-6-yl)pyrimidin-4-amine]",50 to 500
8,"CN1CCN(c2ccc(Nc3cc(N4OCC[C@H]4c4ccccc4)ncn3)cc2)CC1 [Example 2, (S)—N-(4-(4-methylpiperazin-1-yl)phenyl)-6-(3-phenylisoxazolidin-2-yl)pyrimidin-4-amine]",50 to 500
9,"c1ccc([C@H]2CCON2c2cc(Nc3ccc(N4CCN(C5COC5)CC4)cc3)ncn2)cc1 [Example 124, (R)—N-(4-(4-(oxetan-3-yl)piperazin-1-yl)phenyl)-6-(3-phenylisoxazolidin-2-yl)pyrimidin-4-amine]",< 50
10,"CN1CCN(c2ccc(Nc3cc(N4OCC[C@@H]4c4ccccc4)ncn3)cc2OCC(F)(F)F)CC1 [Example 139, (R)—N-(4-(4-methylpiperazin-1-yl)-3-(2,2,2-trifluoroethoxy)phenyl)-6-(3-phenylisoxazolidin-2-yl)pyrimidin-4-amine]",< 50
11,"CN(C)[C@@H]1CCN(c2ccc(Nc3cc(N4OCC[C@@H]4c4ccccc4)ncn3)cc2)C1 [Example 69, N-(4-((R)-3-(dimethylamino)pyrrolidin-1-yl)phenyl)-6-((R)-3-phenylisoxazolidin-2-yl)pyrimidin-4-amine]",< 50
12,"Fc1cc(F)cc([C@H]2CCON2c2cc(Nc3ccc(C4CCNCC4)c4c3OCC4)ncn2)c1 [Example 157, (R)-6-(3-(3,5-difluorophenyl)isoxazolidin-2-yl)-N-(4-(piperidin-4-yl)-2,3-dihydrobenzofuran-7-yl)pyrimidin-4-amine]",< 50
13,"Cc1cc(Nc2cc(N3OCC[C@@H]3c3ccccc3)ncn2)ccc1N1CCN(C)CC1 [Example 107, (R)—N-(3-methyl-4-(4-methylpiperazin-1-yl)phenyl)-6-(3-phenylisoxazolidin-2-yl)pyrimidin-4-amine]",< 50
14,"FC(F)(F)c1cccc(Nc2cc(N3OCC[C@@H]3c3ccccc3)ncn2)c1 [Example 73, (R)-6-(3-phenylisoxazolidin-2-yl)-N-(3-(trifluoromethyl)phenyl)pyrimidin-4-amine]",50 to 500
15,"CC(=O)N1CCN(c2ccc(Nc3cc(N4OCC[C@@H]4c4ccccc4)ncn3)cc2)CC1 [Example 122, (R)-1-(4-(4-((6-(3-phenylisoxazolidin-2-yl)pyrimidin-4-yl)amino)phenyl)piperazin-1-yl)ethan-1-one]",< 50
16,"COc1cc(N2CCN(C)CC2)c(-c2cnn(C)c2)nc1Nc1cc(N2OCC[C@@H]2c2cccc(F)c2F)ncn1 [Example 201, (R)-6-(3-(2,3-difluorophenyl)isoxazolidin-2-yl)-N-(3-methoxy-6-(1-methyl-1H-pyrazol-4-yl)-5-(4-methylpiperazin-1-yl)pyridin-2-yl)pyrimidin-4-amine]",< 50

# Other lines, results leading:
row,GI50 [nM],SMILES
1,50 to 500,"CN1CCN(C2CCN(c3ccc(Nc4cc(N5OCC[C@@H]5c5cc(F)cc(F)c5)ncn4)cc3)CC2)CC1 [Example 17, (R)-6-(3-(3,5-difluorophenyl)isoxazolidin-2-yl)-N-(4-(4-(4-methylpiperazin-1-yl)piperidin-1-yl)phenyl)pyrimidin-4-amine]"
2,50 to 500,"COc1cc(N2CCC(N3CCN(C)CC3)CC2)ccc1Nc1cc(N2OCC[C@@H]2c2cccc(C(F)(F)F)c2F)ncn1 [Example 28, (R)-6-(3-(2-fluoro-3-(trifluoromethyl)phenyl)isoxazolidin-2-yl)-N-(2-methoxy-4-(4-(4-methylpiperazin-1-yl)piperidin-1-yl)phenyl)pyrimidin-4-amine]"
3,50 to 500,"CN1CCN(c2ccc(Nc3cc(N4OCC[C@@H]4c4cc(F)cc(F)c4)ncn3)cc2)CC1 [Example 18, (R)-6-(3-(3,5-difluorophenyl)isoxazolidin-2-yl)-N-(4-(4-methylpiperazin-1-yl)phenyl)pyrimidin-4-amine]"
4,< 50,"COc1cc(N2CCC(N3CCN4CCCC4C3)CC2)c(NC(=O)CCCl)cc1Nc1cc(N2OCC[C@@H]2c2cc(F)cc(F)c2)ncn1 (stereo partly drawn) [Example 86, 3-chloro-N-(5-((6-((R)-3-(3,5-difluorophenyl)isoxazolidin-2-yl)pyrimidin-4-yl)amino)-2-(4-(hexahydropyrrolo[1,2-a]pyrazin-2 (1H)-yl)piperidin-1-yl)-4-methoxyphenyl)propanamide]"
5,50 to 500,"COc1cccc([C@H]2CCON2c2cc(Nc3ccc(N4CCC(N5CCN(C)CC5)CC4)cc3OC)ncn2)c1 [Example 41, (R)—N-(2-methoxy-4-(4-(4-methylpiperazin-1-yl)piperidin-1-yl)phenyl)-6-(3-(3-methoxyphenyl)isoxazolidin-2-yl)pyrimidin-4-amine]"
6,< 50,"COc1cc(N2CCC(N3CCN(C)CC3)CC2)c(C(C)=O)cc1Nc1cc(N2OCC[C@@H]2c2cccc(F)c2F)ncn1 [Example 145, (R)-1-(5-((6-(3-(2,3-difluorophenyl)isoxazolidin-2-yl)pyrimidin-4-yl)amino)-4-methoxy-2-(4-(4-methylpiperazin-1-yl)piperidin-1-yl)phenyl)ethan-1-one]"
7,< 50,"CCc1cc(Nc2cc(N3OCC[C@@H]3c3cc(F)ccc3F)ncn2)c(OC)cc1N1CCC(N2CCN(C)CC2)CC1 [Example 94, (R)-6-(3-(2,5-difluorophenyl)isoxazolidin-2-yl)-N-(5-ethyl-2-methoxy-4-(4-(4-methylpiperazin-1-yl)piperidin-1-yl)phenyl)pyrimidin-4-amine]"
8,< 50,"CCC(=O)Nc1cc(Nc2cc(N3OCC[C@@H]3c3ccc(F)cc3F)ncn2)c(OC)cc1N1CCC(N2CCC(N3CCN(C)CC3)CC2)CC1 [Example 87, (R)—N-(5-((6-(3-(2,4-difluorophenyl)isoxazolidin-2-yl)pyrimidin-4-yl)amino)-4-methoxy-2-(4-(4-methylpiperazin-1-yl)-[1,4′-bipiperidin]-1′-yl)phenyl)propionamide]"
9,< 50,"COc1cc(N2CCC(N3CCN(C)CC3)CC2)ccc1Nc1cc(N2OCC3(CC3)[C@@H]2c2ccccc2)ncn1 [Example 233, (S)—N-(2-methoxy-4-(4-(4-methylpiperazin-1-yl)piperidin-1-yl)phenyl)-6-(7-phenyl-5-oxa-6-azaspiro[2.4]heptan-6-yl)pyrimidin-4-amine]"
10,< 50,"COc1cc(N2CC(N3CCN(C)CC3)C2)ccc1Nc1cc(N2OCC[C@@H]2c2cccc(F)c2F)ncn1 [Example 218, (R)-6-(3-(2,3-difluorophenyl)isoxazolidin-2-yl)-N-(2-methoxy-4-(3-(4-methylpiperazin-1-yl)azetidin-1-yl)phenyl)pyrimidin-4-amine]"
11,< 50,"COc1cc(N2CCC(N3CCN(C)CC3)CC2)ccc1Nc1cc(N2OCC[C@@H]2c2cncc(Cl)c2)ncn1 [Example 182, (R)-6-(3-(5-chloropyridin-3-yl)isoxazolidin-2-yl)-N-(2-methoxy-4-(4-(4-methylpiperazin-1-yl)piperidin-1-yl)phenyl)pyrimidin-4-amine]"
12,< 50,"COc1cc(N2CCC(N3CCN(C(C)C)CC3)CC2)ccc1Nc1cc(N2OCC[C@@H]2c2cccc(F)c2F)ncn1 [Example 222, (R)-6-(3-(2,3-difluorophenyl)isoxazolidin-2-yl)-N-(4-(4-(4-isopropylpiperazin-1-yl)piperidin-1-yl)-2-methoxyphenyl)pyrimidin-4-amine]"
